Source: publication PMC6796237 (ACS Omega, 2019)

Target: recombinant HCV NS3/4A GT1b wt (Hepatitis C virus genotype 1b, UniProt Q9WMX2)
Test: HCV NS3/4A enzymatic inhibition assay, wild type
Format: biochemical
Details: compounds at 13.08, 14.68, 4.60 μM of 1, 12, 22; 40 nM enzyme

Sequence of recombinant HCV NS3/4A GT1b wt (Q9WMX2 1027-1657 limits assumed): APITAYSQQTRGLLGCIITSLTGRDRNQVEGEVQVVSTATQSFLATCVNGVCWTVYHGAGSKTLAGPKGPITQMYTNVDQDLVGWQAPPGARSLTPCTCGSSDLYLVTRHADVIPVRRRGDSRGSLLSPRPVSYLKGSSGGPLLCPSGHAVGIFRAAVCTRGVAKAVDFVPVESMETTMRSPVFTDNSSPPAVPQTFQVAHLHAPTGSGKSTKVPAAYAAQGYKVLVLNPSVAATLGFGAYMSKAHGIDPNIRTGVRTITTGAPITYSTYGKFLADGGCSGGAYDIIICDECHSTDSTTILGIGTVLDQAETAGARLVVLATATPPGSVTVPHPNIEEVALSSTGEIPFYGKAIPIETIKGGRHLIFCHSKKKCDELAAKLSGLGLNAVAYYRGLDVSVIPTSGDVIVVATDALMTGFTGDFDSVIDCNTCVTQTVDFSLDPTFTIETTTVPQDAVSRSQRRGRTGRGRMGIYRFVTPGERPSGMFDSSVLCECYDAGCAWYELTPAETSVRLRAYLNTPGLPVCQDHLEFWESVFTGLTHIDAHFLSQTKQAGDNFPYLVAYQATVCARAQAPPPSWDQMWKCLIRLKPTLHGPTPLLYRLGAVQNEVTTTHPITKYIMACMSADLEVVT
Sequence of recombinant HCV NS3/4A GT1b wt (Q9WMX2 1658-1711 partner limits assumed): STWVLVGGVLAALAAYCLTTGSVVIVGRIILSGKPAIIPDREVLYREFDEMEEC

With “3-(1H-Indol-3-yl)-2-(3-(4-isopropylphenyl)ureido)-N-(3-(piperidin-1-yl)propyl)propenamide [Compound 22]” the “Decrease of HCV NS3/4A activity” value was “about 50%”.
